Results as given in publication PMC6678097, “Machilin A Inhibits Tumor Growth and Macrophage M2 Polarization Through the Reduction of Lactic Acid” (Cancers, 2019).

What was measured:
HT29 = test: Cell viability, MTT assay; format: cell-based, human
Protocol: (§1) Human colon cancer cells (WiDr, DLD-1, RKO, and HT29) and murine Lewis lung carcinoma (LLC) cells were purchased from the American Type Culture Collection (Manassas, VA, USA). Human breast cancer MCF7 cells, human hepatocellular carcinoma cells (Huh-7, HepG2, and Hep3B), and human lung cancer cells (HCC-95 and NCI-H1793) were provided by the Korean Cell Line Bank (Seoul, Korea). The HCC-95 and NCI-H1793 cells were grown in a Roswell park memorial institute medium (RPMI) 1640 medium (HyClone^TM; GE Healthcare, Chicago, IL, USA). All other cells were grown in Dulbecco’s modified eagle medium (DMEM) supplemented with L-glutamine (200 mg/L), 10% (v/v) heat-inactivated fetal bovine serum (FBS; Sigma-Aldrich, St. Louis, MO, USA), and antibiotics (100 U/mL penicillin and 100 μg/mL streptomycin; Thermo Fisher Scientific, Waltham, MA, USA) in a humidified incubator at 37 °C and with 5% CO2 before the experiments. For induction of hypoxia condition (1% oxygen), the cells were cultured were cultured in the mixture of 94% nitrogen and 5% CO2/air at 37 °C for 24 h in cell culture incubator. Cytotoxicity of MA was evaluated using an MTT assay. Briefly, cells were incubated in 24-well plates with specified concentrations of MA for 24 or 48 h. Then, MTT solution (2.0 mg/mL) was added to each well. After 4 h of incubation at 37 °C and 5% CO2 in a cell culture incubator, the conditioned media were removed, and the amount of formazan crystals formed in living cells was estimated by measuring the absorbance at 540 nm using a microplate reader (Spectramax M2; Molecular Devices, CA, USA). The respective percentages of living cells were compared with a control treatment.

Hep3B = test: Cell viability, MTT assay; format: cell-based, human
Protocol: as §1

phospholipase Cγ1 = test system: phospholipase Cγ1; set-up: method as in PMID 15554262; settings: cited from earlier work
[1] = target: T1, purified recombinant LDHA (Homo sapiens, UniProt P00338); test: In vitro LDH activity assay with purified recombinant LDHA; format: biochemical
T1 construct: made in house
Protocol: (§2) A purification of recombinant LDHA was performed as described previously. LDH activity was determined by measuring the decrease of absorbance at 340 nm due to the oxidation of NADH in 20 mM HEPES-K^+, 0.05% bovine serum albumin (BSA), 20 μM NADH, and 2 mM pyruvate (Sigma-Aldrich, St. Louis, MO, USA) at a pH of 7.2 using a spectrofluorometer (Spectramax M2, Molecular Devices, San Jose, CA, USA; excitation 340 nm; emission 460 nm), as described previously. Ten nanograms of recombinant LDHA protein were used in the in vitro LDH activity assay. One microgram of total protein from cell or tissue lysates was used for intracellular or in vivo LDH assays.

[2] = target: T2, purified recombinant human LDHA (rhLDHA) (Homo sapiens, UniProt P00338); test: NADH binding assay (LDHA binding to Cibacron Blue 3GA agarose); settings: machilin A 10 and 100 μM; NADH positive control
T2 construct: made in house
Protocol: An NADH binding assay was performed as described previously. The NADH binding ability of LDHA was determined by measuring the affinity of LDHA to agarose-immobilized Cibacron Blue 3GA, which resembles NADH. Then, 400 ng of purified recombinant human LDHA (rhLDHA) was incubated with NADH or MA, followed by incubation with 30 µL of Cibacron Blue agarose at 4 °C for 2 h. After a washing step with 20 mM Tris-HCl (pH 8.6), LDHA bound to beads was eluted in PBS using a sodium dodecyl sulfate (SDS) gel running buffer and was then subjected to–SDS-polyacrylamide gel electrophoresis (SDS-PAGE) and western blotting. Standardized amounts of protein were used in each reaction.

LDHA [3] = test: LDHA expression, western blot; format: cell-based, human; settings: normoxic and hypoxic conditions
Protocol: Total protein was extracted from each cell using 1% NP-40 lysis buffer (150 mM NaCl, 10 mM HEPES (pH 7.45), 1% NP-40, 5 mM Na pyrophosphate, 5 mM NaF, 2 mM Na3VO4) containing protease inhibitor cocktail tablets (Roche, Basel, Switzerland). Equal amounts (20 μg) of protein from each sample were fractionated using SDS-PAGE and the protein was then transferred onto nitrocellulose membranes (Hybond ECL; GE Healthcare, Chicago, IL, USA) using electrophoresis. The membranes were blocked for 1 h at room temperature using 5% non-fat dry milk and were then incubated with primary antibodies specific to the target protein at 4 °C overnight. The membranes were washed three times, and incubated with the respective secondary antibodies conjugated with horseradish peroxidase. The specific bands of targeted proteins were detected using ECL Plus (GE Healthcare, Chicago, IL, USA).

LDHA [4] = target: LDHA (Homo sapiens, UniProt P00338); test: Intracellular LDH activity in lysates of MA-treated cancer cells; format: cell-based; set-up: One microgram of total protein from cell or tissue lysates was used for intracellular or in vivo LDH assays; endogenous in cells; host or cells: WiDr, DLD-1, RKO, HT29, MCF7, Huh-7, HepG2, Hep3B, HCC-95, NCI-H1793; settings: for IC50: normoxic
Protocol: as §2

LDHB = LDHB (Homo sapiens, UniProt P07195); test: LDHB activity (data not shown); format: biochemical; settings: concentrations of up to 500 μM
HUVECs = test: Growth (MTT) and tube formation of endothelial cells, direct treatment; format: cell-based, human; settings: 24 h
Protocol: Figure S10. The viabilities of HUVECs and RAW264.7 cells on MA. (A) HUVECs were treated with indicated concentration of machilin A for 24 h. The viabilities of cells were evaluated by MTT assay.
(B ) HUVECs seeded to the Matrigel-coated wells treated with machilin A for 24 h. ( C) Raw 264.7 macrophage cells were treated with indicated concentration of machilin A for 24 h. The viabilities of cells were evaluated by MTT assay.
(1 picture or pasted object on this page, not shown here)

[5] = hypoxic and normoxic conditions, 48 h

Sequence of LDHB (P07195 whole entry, species assumed): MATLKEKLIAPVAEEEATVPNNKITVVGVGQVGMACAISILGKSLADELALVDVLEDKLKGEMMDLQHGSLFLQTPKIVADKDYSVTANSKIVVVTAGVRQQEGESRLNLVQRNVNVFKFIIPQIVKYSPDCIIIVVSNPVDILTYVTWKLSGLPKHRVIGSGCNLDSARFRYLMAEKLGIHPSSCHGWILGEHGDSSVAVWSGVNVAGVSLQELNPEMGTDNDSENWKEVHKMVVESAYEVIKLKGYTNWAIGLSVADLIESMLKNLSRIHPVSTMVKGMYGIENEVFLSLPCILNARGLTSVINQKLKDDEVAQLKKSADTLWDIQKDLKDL

C[C@H](Cc1ccc2c(c1)OCO2)[C@@H](C)Cc1ccc2c(c1)OCO2 [MA, bis(3,4-methylenedioxy)-8,8’-lignan]
IC50 (HT29; Homo sapiens, HT-29, normoxic): 107 ± 4.66 µM
growth of cells (HT29; [5]): substantially inhibited the growth
IC50 (Hep3B; Homo sapiens, normoxic): 140 ± 8.55 µM
growth of cells (Hep3B; [5]): substantially inhibited the growth
effect on phospholipase Cγ1 (phospholipase Cγ1): inhibiting phospholipase Cγ1
mode of inhibition of LDHA activity ([1]; data not shown): competitive inhibition
IC50 ([1]; purified recombinant LDHA, read-out: inhibitory concentration (IC50) for LDHA activity): 84 µM
LDHA binding to Cibacron Blue Agarose beads (NADH mimic) [2]: prohibited LDHA binding
expression of LDHA (LDHA [3]): not affected
IC50 (LDHA [4]; DLD-1 cells): 129 ± 24.8 µM
IC50 (LDHA [4]; HCC-95 cells): 112 ± 10.1 µM
increase of LDHA activity in hypoxic condition (LDHA [4]; HT29, machilin A 30 μM, hypoxia): significantly reduced
IC50 (LDHA [4]; HT29 cells): 48.4 ± 4.33 µM
IC50 (LDHA [4]; Hep3B cells): 48.3 ± 4.13 µM
IC50 (LDHA [4]; HepG2 cells): 101 ± 40.5 µM
IC50 (LDHA [4]; Huh7 cells): 85.1 ± 20.9 µM
IC50 (LDHA [4]; MCF-7 cells): 61.2 ± 3.02 µM
IC50 (LDHA [4]; NCI-H1793 cells): 64 ± 5.61 µM
IC50 (LDHA [4]; RKO cells): 73.7 ± 20.7 µM
IC50 (LDHA [4]; WiDr cells): 61.9 ± 8.02 µM
effect on LDHB activity (LDHB): did not affect LDHB activity
growth and tube formation of endothelial cells (HUVECs): did not directly inhibit
